From patent US20040076974A1, “Liver necrosis predictive genes” (priority 2002, published 2004)
Values joined by “and” are separate entries in the source; they are usually repeats but may differ in a detail not shown here. Equal values may be shown once. Read-outs that look alike come from different tables or passages of the source.

How the values were obtained:
Sprague Dawley rats = conditions: rat
Outline: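 Toxicity calls (necrosis present or absent at 72 h) and histopathology scores were correlated with tissue gene expression from Crl:CD Sprague Dawley rats. Animals, usually 3 treated with compound by i.p. route and 3 given vehicle, were killed at 6, 24 or 72 h and tissues frozen immediately in liquid nitrogen.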

Male Sprague-Dawley rats = format: in vivo, rat; conditions: intraperitoneal injection
[1] = tested on: toxicologically relevant rat genes (rat CT array); conditions: rat, in vivo

## S=C=Nc1cccc2ccccc12 [1-naphthylisothiocyanate]
Sprague Dawley rats; high dose of Table 1, liver necrosis at 72 hours
  toxicity at the high dose: produced toxicity
Sprague Dawley rats; intraperitoneal, dose 15 mgkg, 72 hours after treatment
  Liver Necrosis: no
Sprague Dawley rats; intraperitoneal, dose 15 mgkg, 72 hours, 1 = not remarkable, 2 and higher increasing severity
  Score (histopathology liver necrosis severity score): 1
Sprague Dawley rats; intraperitoneal, dose 60 mgkg, 72 hours after treatment
  Liver Necrosis: Yes
Sprague Dawley rats; intraperitoneal, dose 60 mgkg, 72 hours, 1 = not remarkable, 2 and higher increasing severity
  Score (histopathology liver necrosis severity score): 2
Male Sprague-Dawley rats; 100 mg/kg
  hepatocellular necrosis by histopathology: induced hepatocellular necrosis

## CC(=N)S [thioacetamide]
Male Sprague-Dawley rats; 200 mg/kg
  hepatocellular necrosis by histopathology: induced hepatocellular necrosis

## CC/C(=C(\c1ccccc1)c1ccc(OCCN(C)C)cc1)c1ccccc1 [tamoxifen]
[1]
  14-3-3 zeta expression: 1.06 and 1.114 and 1.024 and 1.069 and 1.078
  60S ribosomal protein L6 expression: 1.136 and 1.258 and 1.391 (2×) and 1.1
  Adenine nucleotide translocator 1 expression: 0.8038 and 0.8428 and 1.025 and 0.963 and 1.349
  Alpha-1 microglobulin/bikunin precursor (Ambp) expression: 1.137 and 1.13 and 1.288 and 1.072 and 1.505
  Alpha-tubulin expression: 0.9413 and 0.9605 and 0.9619 and 0.9049 and 1.355
  Aquaporin-3 (AQP3) expression: 0.9813 and 0.7741 and 0.9894 and 0.9996 and 0.8864
  Beta-actin expression: 0.7738 and 0.942 and 0.6998 and 1.204
  Beta-actin, sequence 2 expression: 0.7894 and 1.034 and 1.023 and 0.5893
  Beta-tubulin, class I expression: 0.7904 and 0.7769 and 1.118 and 1.041 and 1.416
  Biliverdin reductase expression: 1.244 and 1.177 and 0.9432 and 0.9712
  CDK108 expression: 0.7646 and 0.771 and 0.9296 and 1.067 and 0.6341
  Calpactin I heavy chain expression: 1.24 and 0.9779 and 0.9969 and 0.9558 and 1.503
  Calpain 2 expression: 1.074 and 1.028 and 1.069
  Cathepsin B expression: 1.062 and 1.634 and 1.119 and 0.9643 and 1.263
  Cathepsin L, sequence 2 expression: 0.793 and 1.456 and 0.963 and 0.9594
  Cathepsin S expression: 0.8837 and 1.721 and 1.401
  Cyclin D1 expression: 0.9348 and 0.6137 and 1.116 and 1.1 and 0.745
  Cystatin C expression: 0.7987 and 0.8206 and 1.149 and 1.058 and 1.138
  Dynamin-1 (D100) expression: 0.974 and 0.8723 and 0.9822 and 1.024 and 0.9733
  Elongation factor-1 alpha expression: 1.144 and 1.188 and 1.098 and 0.9078 and 1.206
  Equilbrative nitrobenzylthioinosine-sensitive nucleoside transporter expression: 1.073 and 0.9454 and 0.9032 and 1.004 and 0.9505
  F1-ATPase beta subunit expression: 0.7234 and 0.6975 and 0.9473 and 0.9602 and 1.189
  Gamma-actin, cytoplasmic expression: 0.982 and 0.9804 and 1.031 and 1.54
  Glutathione S-transferase theta-1 expression: 0.8059 and 0.9415 and 0.8757 and 1.133
  High affinity IgE receptor gamma chain (FcERIgamma) expression: 0.9724 and 1.018 and 1.021 and 1.327
  Hypoxanthine-guanine phosphoribosyltransferase expression: 0.7468 and 0.8598 and 0.8651 and 0.806 and 0.9251
  IgE binding protein expression: 1.306 and 1.678 and 1.071 and 1.114 and 1.302
  JNK1 stress activated protein kinase expression: 0.666 and 0.9165 and 0.9272 and 0.962 and 0.7174
  Melanoma-associated antigen ME491 expression: 1.025 and 1.238 and 1.062 and 1.098 and 1.559
  Multidrug resistant protein-1 expression: 1.082 and 1.58 and 1.118 and 1.184 and 0.9501
  Multidrug resistant protein-2 expression: 0.8809 and 1.298 and 1.165 and 1.156 and 0.7835
  N-hydroxy-2-acetylaminofluorene sulfotransferase (ST1C1) expression: 1.02 and 0.9797 and 0.9522 and 1.016
  NADP-dependent isocitrate dehydrogenase, cytosolic expression: 0.865 and 1.545
  NIPK expression: 1.08 and 1.011 and 0.9454 and 0.9651
  Organic cation transporter 3 expression: 0.8883 and 1.096 and 1.263
  Ornithine decarboxylase expression: 0.8334 and 1.039 and 1.055 and 1.097 and 1.469
  Osteoactivin expression: 1.459 and 1.435 and 0.9157 and 0.9271 and 1.449
  Paraoxonase 1 expression: 0.7398 and 0.6886 and 1.221 and 1.224
  Phase-1 RCT-24 expression: 0.8968
  Phase-1 RCT-39 expression: 1.47 and 0.9339 and 0.9947
  Phase-1 RCT-43 expression: 0.9905 and 0.9704 and 0.9375
  Phase-1 RCT-57 expression: 0.8991 and 0.6888
  Phase-1 RCT-78 expression: 0.8505 and 0.8237
  Phase-1 RCT-81 expression: 1.102
  Phase-1 RCT-107 expression: 0.9169 and 0.6899
  Phase-1 RCT-109 expression: 0.6916
  Phase-1 RCT-117 expression: 0.9421 and 0.9667
  Phase-1 RCT-138 expression: 0.9832
  Phase-1 RCT-144 expression: 0.8629
  Phase-1 RCT-146 expression: 0.9994
  Phase-1 RCT-149 expression: 1.1 and 0.8836
  Phase-1 RCT-154 expression: 0.8651 and 0.9418 and 0.9917
  Phase-1 RCT-156 expression: 1.103
  Phase-1 RCT-164 expression: 0.9378 and 0.8318 and 0.9484
  Phase-1 RCT-173 expression: 0.7045 and 0.5898
  Phase-1 RCT-174 expression: 0.7203 and 0.6816
  Phase-1 RCT-179 expression: 1.2 and 0.9105 and 1.544
  Phase-1 RCT-192 expression: 0.999
  Phase-1 RCT-207 expression: 0.9742
  Phase-1 RCT-211 expression: 0.8217 and 0.6431
  Phase-1 RCT-213 expression: 0.8004
  Phase-1 RCT-227 expression: 0.8538
  Phase-1 RCT-260 expression: 0.974 and 0.93
  Phase-1 RCT-290 expression: 0.5411 and 0.6526
  Poly(ADP-ribose) polymerase expression: 0.8263 and 1.077 and 0.8901 and 0.8489 and 1.291
  Pyruvate kinase, muscle expression: 1.141 and 1.584 and 1.146 and 1.081 and 0.8598
  Ribosomal protein L13A expression: 1.178 and 0.9908 and 0.8711
  Ribosomal protein S8 expression: 1.069 and 1.043 and 1.983 and 1.441
  Ribosomal protein S17 expression: 0.9563 and 0.9932 and 1.772 and 1.494
  Stathmin expression: 0.8925 and 1.067 and 1.025 and 0.9726 and 0.8514
  Thioredoxin-1 (Trx1) expression: 0.9876 and 1.146 and 1.089 and 0.8216 and 0.7283
  Thymosin beta-10 expression: 0.8732 and 1.234 and 1.068 and 0.8379
  Tissue plasminogen activator expression: 0.8347 and 0.7599 and 0.9719 and 1.009 and 1.011
  Transitional endoplasmic reticulum ATPase expression: 0.9168 and 0.8359 and 1.015 and 0.9607 and 1.436
  Ubiquitin conjugating enzyme (RAD 6 homologue) expression: 0.9338 and 0.984 and 0.8685 and 0.6936 and 1.384
  Uncoupling protein 2 expression: 1.105 and 1.472 and 1.007 and 0.9206
  Zinc finger protein expression: 0.8577 and 1.115 and 0.9673 and 0.8957 and 1.145
  p55CDC expression: 1.198 and 1.343 and 1.163 and 1.148 and 0.9509
  {Phase-1 RCT 98} expression: 0.8993 and 0.665 and 1.028 and 1.025
  {Ribosomal protein 16} expression: 1.136 and 1.255 and 1.519
Sprague Dawley rats; Sprague Dawley, in vivo, ip, 50 mg/kg, 72 h
  Score (histopathology liver necrosis severity score): 1
Sprague Dawley rats; Sprague Dawley, in vivo, ip, 200 mg/kg, 72 h
  Score (histopathology liver necrosis severity score): 1
Sprague Dawley rats; in vivo, ip, 50 mg/kg
  Liver Necrosis: no
Sprague Dawley rats; in vivo, ip, 200 mg/kg
  Liver Necrosis: no
